Measured values from patent US6875761B2 (Eisai Co., Ltd., priority 1997, dated 2005).
pKi: −log10 of the molar value. Where a name gives a salt, the structure may show the parent alone.

Assays:
serotonin 1A receptor = molecular target: T1, serotonin 1A receptor (Rattus norvegicus, UniProt P19327); test: Binding test on [3H] 8-hydroxy-dipropylaminotetralin, hippocampus receptor fraction; set-up: species or system SD rats; details: rat hippocampus receptor fraction, 0.5 nM [3H] 8-OH-DPAT, room temperature 30 min; read-out: 5HT1
T1 construct: To the receptor fraction of the hippocampus were added a test compound and 0.5 nM of [^3H]; 8-hydroxy-dipropylaminotetralin; from tissue; host or cells: rat hippocampus membrane fraction
T1 sequence (P19327 1-422): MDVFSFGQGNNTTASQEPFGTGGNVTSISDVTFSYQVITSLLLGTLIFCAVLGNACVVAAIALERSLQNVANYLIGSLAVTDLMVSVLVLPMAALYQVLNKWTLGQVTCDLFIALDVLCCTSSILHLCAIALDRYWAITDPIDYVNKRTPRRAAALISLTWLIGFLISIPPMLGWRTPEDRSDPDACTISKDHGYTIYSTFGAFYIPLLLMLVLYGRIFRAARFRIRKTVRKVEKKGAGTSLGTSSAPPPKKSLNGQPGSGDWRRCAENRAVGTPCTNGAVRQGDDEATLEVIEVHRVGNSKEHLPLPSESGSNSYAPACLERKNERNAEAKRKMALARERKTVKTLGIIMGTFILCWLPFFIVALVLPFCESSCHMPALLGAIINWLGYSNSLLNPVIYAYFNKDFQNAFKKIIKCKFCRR

serotonin 2 receptor = molecular target: T2, serotonin 2 receptor (Rattus norvegicus, UniProt P14842); test: Binding test on [3H] ketanserin, cerebral cortex receptor fraction; set-up: species or system SD rats; details: 0.3 nM [3H] ketanserin, 37° C. 15 min, read-out: 5HT2
T2 construct: To the receptor fraction of the cerebral cortex were added a test compound and 0.3 nM of [^3H] ketanserin; from tissue; host or cells: rat cerebral cortex membrane fraction
T2 sequence (P14842 whole entry): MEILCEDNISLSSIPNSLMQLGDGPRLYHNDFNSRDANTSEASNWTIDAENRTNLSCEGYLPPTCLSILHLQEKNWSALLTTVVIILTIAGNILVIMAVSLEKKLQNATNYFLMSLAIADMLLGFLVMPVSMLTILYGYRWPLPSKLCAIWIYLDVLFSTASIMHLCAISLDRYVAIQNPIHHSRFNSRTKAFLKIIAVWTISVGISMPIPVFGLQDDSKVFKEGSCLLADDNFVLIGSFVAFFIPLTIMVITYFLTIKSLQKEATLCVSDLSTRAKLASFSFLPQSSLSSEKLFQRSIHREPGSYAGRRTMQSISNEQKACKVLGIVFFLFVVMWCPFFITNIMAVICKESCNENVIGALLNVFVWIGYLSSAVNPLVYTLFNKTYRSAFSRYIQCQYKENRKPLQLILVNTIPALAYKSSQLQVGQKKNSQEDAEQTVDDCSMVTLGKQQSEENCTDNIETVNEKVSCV

| SMILES | pKi (serotonin 1A receptor) | pKi (serotonin 2 receptor) |
| --- | --- | --- |
| CCN1CCN(c2nc(-c3ccc(OC)cc3)nc3ccccc23)CC1 [Example 427, 4-(4-ethylpiperazin-1-yl)-2-(4-methoxyphenyl)quinazoline Dihydrochloride] | 7.09 | 6.52 |
| CCN1CCN(c2nc(-c3ccc(OCC(O)COC)cc3)cc3ccccc23)CC1 (stereo not drawn) [Example 343, 1-(4-ethylpiperazin-1-yl)-3-[4-(2-hydroxy-3-methoxypropoxy)phenyl]isoquinoline dihydrochloride] | 7.45 | 8.24 |
| CCN1CCN(c2nc(-c3ccc(CCC(C)O)nc3)cc3ccccc23)CC1 (stereo not drawn) [Example 136, 1-(1-Ethylpiperazin-4-yl)-3-[2-(3-Hydroxybutyl)Pyridin-5-yl]Isoquinoline] | 8.43 | 7.94 |
| CCN1CCN(c2nc(Cc3ccccc3)cc3ccccc23)CC1 [Example 419, 1-(4-ethylpiperazin-1-yl)-3-benzylisoquinoline] | 7.02 | 7.79 |
| CCN1CCN(c2nc(-c3ccc(OCCO)c(C(C)C)c3)cc3ccccc23)CC1 [Example 41, 3-[3-isopropyl-4-(2-hydroxyethoxy)phenyl]-1-(4-ethylpiperazin-1-yl)isoquinoline hydrochloride] | 7.40 | 7.34 |
| CCN1CCN(c2nc(-c3ccc(OCCO)cc3)cc3cscc23)CC1 [Example 278, 4-(4-ethylpiperazin-1-yl)-6-[4-(2-hydroxyethoxy)phenyl]thieno-[3,4-c]pyridine oxalate] | 7.38 | 8.34 |
| CCN1CCN(c2nc(C#Cc3ccc(OC)cc3OC)cc3ccccc23)CC1 [Example 185, 1-(1-Ethylpiperazin-4-Yl)-3-(2,4-Dimethoxyphenylethynyl)Isoquinoline Dihydrochloride] | 7.67 | 8.70 |
| CCN1CCN(c2nc(-c3ccc(C(F)CCO)cc3)cc3cccnc23)CC1 (stereo not drawn) [Example 249, 8-(1-ethylpiperazin-4-yl)-6-[4-(3-hydroxy-1-fluoropropyl)phenyl]-1,7-naphthyridine Dihydrochloride] | 7.42 | 7.55 |
| CCN1CCN(c2nc(-c3ccc(OC)c(CCCO)c3)cc3ccccc23)CC1 [Example 34, 3-[3-(3-hydroxypropyl)-4-methoxyphenyl]-1-(4-ethylpiperazin-1-yl)isoquinoline hydrochloride] | 7.63 | 7.76 |
| CCN1CCN(c2nc(-c3cc(OC)ccn3)cc3ccccc23)CC1 [Example 335, 1-(4-ethylpiperazin-1-yl)-3-(4-methoxypyridin-2-yl)isoquinoline dihydrochloride] | 7.22 | 7.69 |
| CCN1CCN(c2nc(-c3ccc(CCC(C)O)cc3)cc3cccnc23)CC1 (stereo not drawn) [Example 248, 8-(1-ethylpiperazin-4-yl)-6-[4-(3-hydroxybutyl)phenyl]-1,7-naphthyridine Dihydrochloride] | 7.37 | 7.50 |
| CCN1CCN(c2nc(-c3ccc(OC)cc3)cc3cccnc23)CC1 [Example 244, 8-(4-ethylpiperazin-1-yl)-6-(4-methoxyphenyl)pyrido[2,3-c]pyridine Hydrochloride] | 7.57 | 7.10 |
| CCN1CCN(c2nc(-c3ccc(C4=CCC(O)CC4)cc3)cc3ccccc23)CC1 (stereo not drawn) [Example 64, 3-[4-(4-Hydroxy-1-Cyclohexen-1-Yl)Phenyl]-1-(4-Ethylpiperazin-1-Yl)Isoquinoline Hydrochloride] | 7.06 | 8.07 |

Now from value to compound:

| pKi (serotonin 1A receptor) | pKi (serotonin 2 receptor) | SMILES |
| --- | --- | --- |
| 7.69 | 8.45 | CCN1CCN(c2nc(-c3ccc(CCCO)c(OC)c3)cc3ccsc23)CC1 [Example 433, 7-(4-ethylpiperazin-1-yl)-5-[4-(3-hydroxypropyl)-3-methoxyphenyl]thieno[2,3-c]-pyridine hydrochloride] |
| 7.91 | 6.98 | CCN1CCN(c2nc(-c3ccc(OCCCO)cc3)cc3ccoc23)CC1 [Example 317, 7-(1-ethylpiperazin-4-yl)-5-[4-(3-hydroxypropoxy)phenyl]furo[2,3-c]pyridine dihydrochloride] |
| 7.93 | 8.13 | CCN1CCN(c2nc(-c3ccc(C(O)CCO)cc3)cc3ccccc23)CC1 (stereo not drawn) [Example 24, 3-[4-(1,3-dihydroxypropyl)phenyl]-1-(4-ethylpiperazin-1-yl)isoquinoline hydrochloride] |
| 8.10 | 7.62 | CCN1CCN(c2nc(-c3ccc(S(=O)(=O)NCCO)cc3)cc3ccccc23)CC1 [Example 347, 1-(4-ethylpiperazin-1-yl)-3-{4-[N-(2-hydroxyethyl)sulfamoyl]phenyl}isoquinoline dihydrochloride] |
| 8.21 | 7.91 | CCN1CCN(c2nc(-c3ccc(N4CCC(O)CC4)nc3)cc3ccccc23)CC1 [Example 152, 1-(4-ethylpiperazin-1-yl)-3-[2-(4-hydroxypiperidin-1-yl)pyridin-5-yl]isoquinoline trihydrochloride] |
| 7.89 | 8.82 | CCN1CCN(c2nc(-c3ccc(N4CCC(OC)CC4)nc3)cc3ccccc23)CC1 [Example 153, 1-(4-ethylpiperazin-1-yl)-3-[2-(4-methoxypiperidin-1-yl)pyridin-5-yl]isoquinoline trihydrochloride] |
| 8.96 | 7.82 | CCCNS(=O)(=O)Cc1ccc(-c2cc3ccccc3c(N3CCN(CC)CC3)n2)cc1 [Example 81, 3-(4-Propylaminosulfonylmethylphenyl)-1-(4-Ethylpiperazin-1-Yl)Isoquinoline Hydrochloride] |
| 8.49 | 8.42 | CCN1CCN(c2nc(/C=C/c3cccc(OCCO)c3)cc3ccccc23)CC1 [Example 199, 1-(1-Ethylpiperazin-4-Yl)-3-(Trans-2-(3-(2-Hydroxyethoxy)Phenyl]Ethenyl]isoquinoline Oxalate] |
| 8.36 | 7.99 | CCN1CCN(c2nc(C#CC(O)c3ccccc3)cc3ccccc23)CC1 (stereo not drawn) [Example 310, 1-(1-ethylpiperazin-4-yl)-3-(3-phenyl-3-hydroxy-1-propynyl)isoquinoline hydrochloride] |
| 8.33 | 7.66 | CCN1CCN(c2nc(-c3cnc(CCCO)s3)cc3ccccc23)CC1 [Example 171, 1-(1-ethylpiperazin-4-yl)-3-[2-(3-hydroxypropyl)thiazol-5-yl]isoquinoline oxalate] |
| 7.97 | 7.25 | CCN1CCN(c2nc(-c3ccc(CN4CCOCC4)cc3)cc3ccccc23)CC1 [Example 93, 3-(4-Morpholinylmethylphenyl)-1-(4-ethylpiperazin-1-yl)isoquinoline Hydrochloride] |
| 8.70 | 7.55 | CCN1CCN(c2nc(-c3ccc(CCCO)cc3)cc3ccsc23)CC1 [Example 432, 7-(4-ethylpiperazin-1-yl)-5-[4-(3-hydroxypropyl)phenyl]thieno[2,3-c]pyridine hydrochloride] |
| 8.21 | 8.49 | CCN1CCN(c2nc(-c3ccc(S(=O)(=O)N(CC)CC)cc3)cc3ccccc23)CC1 [Example 359, 1-(4-ethylpiperazin-1-yl)-3-[4-(N,N-diethylsulfamoyl)phenyl]isoquinoline dihydrochloride] |
| 8.55 | 9.24 | CCNS(=O)(=O)c1ccc(-c2cc3ccccc3c(N3CCN(CC)CC3)n2)cc1 [Example 357, 1-(4-ethylpiperazin-1-yl)-3-[4-(N-ethylsulfamoyl)phenyl]isoquinoline dihydrochloride] |
